Data from US4767762A, “Tricyclic quinoline and naphthyride antibacterials” (Abbott Laboratories, priority 1986, dated 1988).
In brackets after ≈: the same amount, converted by molar mass.

Tests used:
Assay in all cases: in vitro antibacterial activity (MIC), conventional agar dilution
Type in all cases: cell-based
[1] = test system: Acinetobacter sp CMX 669; conditions: CMX669, brain-heart infusion agar, inoculum 10^4 /plate
Procedure: (§1) The in vitro antibacterial activity is determined by conventional agar dilution procedures. A brain-heart infusion agar medium containing the drug is inoculated with a microbial culture cultivated on a brain-infusion broth (Difco 0037-01-6) at 36° C. for 18 hours and then observes for growth of the microorganism. The minimum concentration at which growth of the microorganism is inhibited is taken as MIC (ug/ml). The inoculum size is 10^4 /plate.

[2] = test system: E. coli Juhl; conditions: Escherichia coli, brain-heart infusion agar, inoculum 10^4 /plate
Procedure: as §1

[3] = test system: Ent. aerogenes ATCC 13048; conditions: Klebsiella aerogenes, ATCC13048, brain-heart infusion agar, inoculum 10^4 /plate
Procedure: as §1

[4] = test system: Ent. faecium ATCC 8043; conditions: Enterococcus faecium, ATCC8043, brain-heart infusion agar, inoculum 10^4 /plate
Procedure: as §1

[5] = test system: K. pneumoniae ATCC 8045; conditions: Klebsiella pneumoniae, ATCC8045, brain-heart infusion agar, inoculum 10^4 /plate
Procedure: as §1

[6] = test system: P. aeruginosa A5007; conditions: Pseudomonas aeruginosa, brain-heart infusion agar, inoculum 10^4 /plate
Procedure: as §1

[7] = test system: P. stuartii CMX 640; conditions: Providencia stuartii, CMX640, brain-heart infusion agar, inoculum 10^4 /plate
Procedure: as §1

[8] = test system: Stap. aureus ATCC-6538p; conditions: Staphylococcus aureus, ATCC6538P, brain-heart infusion agar, inoculum 10^4 /plate
Procedure: as §1

[9] = test system: Stap. epidermis 3519; conditions: brain-heart infusion agar, inoculum 10^4 /plate
Procedure: as §1

[10] = test system: Strep. Pyogenes EES61; conditions: Streptococcus pyogenes, brain-heart infusion agar, inoculum 10^4 /plate
Procedure: as §1

| SMILES | MIC [1] | MIC [2] | MIC [3] | MIC [4] | MIC [5] | MIC [6] | MIC [7] | MIC [8] | MIC [9] | MIC [10] |
| --- | --- | --- | --- | --- | --- | --- | --- | --- | --- | --- |
| CCn1c2cc(N3CCNCC3)c(F)cc2c(=O)c2c(=O)[nH]sc21 [46(m), 9-ethyl-6-fluoro-7-(1-piperazinyl)-2,3,4,9-tetrhydroisothiazolo[5,4-b]quinoline-3,4-dione] | 0.39 mg/L (≈ 1.12 µM) | 0.1 mg/L (≈ 0.287 µM) | 0.2 mg/L (≈ 0.574 µM) | 0.39 mg/L (≈ 1.12 µM) | 0.05 mg/L (≈ 0.144 µM) | 0.2 mg/L (≈ 0.574 µM) | 0.39 mg/L (≈ 1.12 µM) | 0.1 mg/L (≈ 0.287 µM) | 0.2 mg/L (≈ 0.574 µM) | 0.2 mg/L (≈ 0.574 µM) |
| O=c1[nH]sc2c1c(=O)c1cc(F)c(N3CCC(O)C3)cc1n2C1CC1 (centres unmarked) [46(ss), 9-cyclopropyl-6-fluoro-7-(3-hydroxy-1-pyrrolidinyl)-2,3,4,9-tetrahydroisothiazolo[5,4-b]quinoline-3,4-dione] | 0.02 mg/L (≈ 0.0553 µM) | 0.02 mg/L (≈ 0.0553 µM) | 0.05 mg/L (≈ 0.138 µM) | 0.2 mg/L (≈ 0.553 µM) | ≤ 0.005 mg/L | 0.39 mg/L (≈ 1.08 µM) | 0.78 mg/L (≈ 2.16 µM) | 0.005 mg/L (≈ 0.0138 µM) | 0.01 mg/L (≈ 0.0277 µM) | 0.39 mg/L (≈ 1.08 µM) |
| CCn1c2cc(N3CCNC(C)C3)c(F)cc2c(=O)c2c(=O)[nH]sc21 (centres unmarked) [46(ww), 9-ethyl-6-fluoro-7-(3-methyl-1-piperazinyl)-2,3,4,9-tetrahydroisothiazolo[5,4-b]quinoline-3,4-dione] | 0.2 mg/L (≈ 0.552 µM) | 0.1 mg/L (≈ 0.276 µM) | 0.1 mg/L (≈ 0.276 µM) | 0.78 mg/L (≈ 2.15 µM) | 0.2 mg/L (≈ 0.552 µM) | 0.39 mg/L (≈ 1.08 µM) | 1.56 mg/L (≈ 4.3 µM) | 0.05 mg/L (≈ 0.138 µM) | 0.1 mg/L (≈ 0.276 µM) | 0.78 mg/L (≈ 2.15 µM) |
| CCn1c2s[nH]c(=O)c2c(=O)c2cc(F)c(N3CCNC(C)C3)c(F)c21 (centres unmarked) [46(xx), 9-ethyl-6,8-difluoro-7-(3-methyl-1-piperazinyl)-2,3,4,9-tetrahydroisothiazolo[5,4-b]quinoline-3,4-dione] | 0.1 mg/L (≈ 0.263 µM) | 0.05 mg/L (≈ 0.131 µM) | 0.1 mg/L (≈ 0.263 µM) | 0.78 mg/L (≈ 2.05 µM) | 0.005 mg/L (≈ 0.0131 µM) | 1.56 mg/L (≈ 4.1 µM) | 3.1 mg/L (≈ 8.15 µM) | 0.1 mg/L (≈ 0.263 µM) | 0.2 mg/L (≈ 0.526 µM) | 0.39 mg/L (≈ 1.03 µM) |
| O=c1[nH]sc2c1c(=O)c1cc(F)c(N3CCNCC3)cc1n2-c1ccc(F)cc1 [46(yy), 9-p-fluorophenyl-6-fluoro-7-(1-piperozinyl)-2,3,4,9-tetrahydroisothiazolo[5,4-b]quinoline-3,4-dione] | 0.2 mg/L (≈ 0.483 µM) | 0.05 mg/L (≈ 0.121 µM) | 0.1 mg/L (≈ 0.241 µM) | 0.78 mg/L (≈ 1.88 µM) | 0.02 mg/L (≈ 0.0483 µM) | 0.78 mg/L (≈ 1.88 µM) | 3.1 mg/L (≈ 7.48 µM) | 0.1 mg/L (≈ 0.241 µM) | 0.2 mg/L (≈ 0.483 µM) | 0.78 mg/L (≈ 1.88 µM) |
| O=c1[nH]sc2c1c(=O)c1cc(F)c(N3CCNCC3)cc1n2C1CC1 [46(zz), 9-cyclopropyl-6-fluoro-7-(1-piperazinyl)-2,3,4,9-tetrahydroisothiazolo[5,4-b]quinoline-3,4-dione] | 0.05 mg/L (≈ 0.139 µM) | 0.005 mg/L (≈ 0.0139 µM) | 0.01 mg/L (≈ 0.0277 µM) | 0.1 mg/L (≈ 0.277 µM) | 0.005 mg/L (≈ 0.0139 µM) | 0.05 mg/L (≈ 0.139 µM) | 0.2 mg/L (≈ 0.555 µM) | 0.02 mg/L (≈ 0.0555 µM) | 0.05 mg/L (≈ 0.139 µM) | 0.05 mg/L (≈ 0.139 µM) |
| Cl.NC1CCN(c2cc3c(cc2F)c(=O)c2c(=O)[nH]sc2n3C2CC2)C1 (centres unmarked) [47(b), 9-cyclopropyl-6-fluoro-7-(3-amino-1-pyrrolidinyl)-2,3,4,9-tetrahydroisothiazolo[5,4-b]quinoline-3,4-dione hydrochloride] | 0.05 mg/L | 0.05 mg/L | 0.01 mg/L | 0.1 mg/L | 0.005 mg/L | 0.2 mg/L | 0.39 mg/L | 0.02 mg/L | 0.05 mg/L | 0.05 mg/L |
| CCn1c2s[nH]c(=O)c2c(=O)c2cc(F)c(N3CCC(N)C3)c(F)c21 (centres unmarked) [47(g), 9-ethyl-6,8-difluoro-7-(3-amino-1-pyrrolidinyl)-2,3,4,9-tetrahydroisothiazolo[5,4-b]quinoline-3,4-dione] | 0.1 mg/L (≈ 0.273 µM) | 0.01 mg/L (≈ 0.0273 µM) | 0.02 mg/L (≈ 0.0546 µM) | 0.2 mg/L (≈ 0.546 µM) | 0.01 mg/L (≈ 0.0273 µM) | 0.78 mg/L (≈ 2.13 µM) | 0.78 mg/L (≈ 2.13 µM) | 0.05 mg/L (≈ 0.136 µM) | 0.1 mg/L (≈ 0.273 µM) | 0.78 mg/L (≈ 2.13 µM) |
